The text below walks through data of DBAASP.

Some test systems named below: Candida glabrata 090902; Pseudomonas aeruginosa 1; Pseudomonas aeruginosa 5; Listeria grayi DSM 20601; Escherichia coli 780; Escherichia coli 850; Acinetobacter baumannii.
Assay in all cases: ≥ marks a high value that may be exact or a test limit, other limits are often not marked, values filed in µg/mL are converted to µM
Assay [1] concerns Staphylococcus aureus ATCC 29313.
The subject of assay [2] is Escherichia coli ATCC 25922.
Assay [3] relates to Salmonella enterica subsp. enterica serovar Typhimurium ATCC 14028.
In assay [4] the test system is Klebsiella pneumoniae ATCC 700603.
The subject of assay [5] is Psychrobacter faecalis X29.
Assay [6] concerns Enterococcus faecalis 981.
Assay [7] has as its system Enterobacter cloacae CGMCC 1.57.
For assay [8], the system named is Klebsiella pneumoniae 08040724.
In assay [9] the test system is Nocardia asteroides 201118.
Assay [10] concerns Candida albicans ATCC 10231.
The test system of assay [11] is Staphylococcus aureus ATCC 25923.
Assay [12] has as its system Enterococcus faecium 091299.
In assay [13] the test system is Acinetobacter baumannii AB1.
Assay [14] has as its system Pseudomonas aeruginosa ATCC 27853.
For assay [15], the system named is Acinetobacter baumannii ATCC 19606.
The subject of assay [16] is Acinetobacter baumannii AB2.
The subject of assay [17] is Acinetobacter baumannii AB3.
Assay [18] concerns Staphylococcus aureus 68 HER 1049.
The subject of assay [19] is Escherichia coli K12 MG1655.
Assay [20] relates to Staphylococcus epidermidis DSM 3269.
The subject of assay [21] is Enterococcus faecalis ATCC 29212.
The subject of assay [22] is Bacillus subtilis ATCC 23857.
In assay [23] the test system is Staphylococcus aureus 725.
For assay [24], the system named is Staphylococcus aureus 936.
In assay [25] the test system is Pseudomonas aeruginosa 2760.

In brackets after ≈: the same amount, converted by molar mass.

As usually defined, the MIC is the lowest concentration that inhibits growth of the organism. Lower therefore signals a more susceptible organism. In the case of `CC[C@H](C)[C@H](NC(=O)[C@H](CCCCN)NC(=O)CNC(=O)[C@H](CCSC)NC(=O)[C@H](C)NC(=O)[C@H](Cc1cnc[nH]1)NC(=O)[C@H](C)NC(=O)[C@@H](NC(=O)[C@H](CC(C)C)NC(=O)[C@H](CCC(N)=O)NC(=O)[C@H](CCCCN)NC(=O)CNC(=O)[C@H](C)NC(=O)[C@H](CC(=O)O)NC(=O)[C@H](CCCCN)NC(=O)[C@@H](NC(=O)[C@@H](NC(=O)[C@H](CC(=O)O)NC(=O)[C@H](Cc1ccccc1)NC(=O)[C@@H](NC(=O)CN)C(C)C)[C@@H](C)CC)[C@@H](C)CC)C(C)C)C(=O)N[C@@H](C)C(=O)N[C@@H](CCC(=O)O)C(=O)N[C@@H](CCCCN)C(=O)N[C@H](C(N)=O)C(C)C` [GVFDIIKDAGKQLVAHAMGKIAEKV], the MIC is ≥ 303 µM in [1], 303 µM (≈ 800 µg/mL) in [2], > 303 µM in assay [3] and > 303 µM in [4].

`CC[C@H](C)[C@H](NC(=O)CNC(=O)[C@@H](NC(=O)[C@H](C)NC(=O)[C@H](C)NC(=O)[C@H](CCCCN)NC(=O)[C@@H](NC(=O)[C@H](CC(C)C)NC(=O)CNC(=O)[C@@H]1CCCN1C(=O)[C@H](CC(C)C)NC(=O)[C@@H](N)Cc1ccccc1)[C@@H](C)CC)C(C)C)C(=O)NCC(=O)N[C@@H](CO)C(=O)N[C@H](C(=O)N[C@H](C(=O)N[C@@H](Cc1ccccc1)C(=O)N[C@H]1CSSC[C@@H](C(=O)O)NC(=O)[C@H](CCCCN)NC(=O)[C@H](CCCN=C(N)N)NC(=O)[C@H](CO)NC(=O)[C@H]([C@@H](C)CC)NC(=O)[C@H](CCCCN)NC1=O)[C@@H](C)CC)[C@@H](C)O` [FLPGLIKAAVGIGSTIFCKISRKC]: the MIC was 25 µM (≈ 63 µg/mL) in [5]; 3.1 µM (≈ 7.82 µg/mL) in assay [6]; ≥ 100 µM in assay [7]; ≥ 100 µM in [8]; 3.1 µM (≈ 7.82 µg/mL) in assay [9]; 50 µM (≈ 126 µg/mL) in assay [10]. The MIC in assay [11] was 3.1 µM (≈ 7.82 µg/mL); in assay [2], 100 µM (≈ 252 µg/mL); in the assay on Candida glabrata 090902, 3.1 µM (≈ 7.82 µg/mL); in [12], ≥ 100 µM.

Regarding `CC[C@H](C)[C@H](NC(=O)[C@H](CCCCN)NC(=O)[C@H](CCCCN)NC(=O)[C@H](Cc1ccc(O)cc1)NC(=O)[C@H](CCC(=O)O)NC(=O)[C@H](CCCN=C(N)N)NC(=O)[C@H](C)NC(=O)[C@@H](N)CC(C)C)C(=O)N[C@H](C(=O)N[C@@H](CCC(=O)O)C(=O)N[C@@H](CCCCN)C(=O)N[C@@H](CC(C)C)C(=O)N[C@@H](CCCCN)C(=O)N[C@@H](CCCN=C(N)N)C(=O)N[C@@H](Cc1c[nH]c2ccccc12)C(=O)N[C@@H](CC(C)C)C(=O)N[C@@H](CCCN=C(N)N)C(=O)N[C@@H](CCC(N)=O)C(=O)N[C@H](C(=O)N[C@@H](CC(C)C)C(=O)N[C@@H](CCCN=C(N)N)C(=O)N[C@H](C(=O)N[C@@H](CC(C)C)C(=O)N[C@@H](CCCN=C(N)N)C(=O)O)[C@@H](C)O)C(C)C)C(C)C` [LAREYKKIVEKLKRWLRQVLRTLR], the MIC in [13] came to 2.58 µM (≈ 8 µg/mL); in assay [14], 2.58 µM (≈ 8 µg/mL); in [15] it was 1.29 µM (≈ 4 µg/mL); with Pseudomonas aeruginosa 1, 2.58 µM (≈ 8 µg/mL); in assay [16] it was 10.3 µM (≈ 32 µg/mL); with Pseudomonas aeruginosa 5 it was 5.17 µM (≈ 16 µg/mL). This molecule also registered an MIC in assay [17] of 5.17 µM (≈ 16 µg/mL).

On to `CC(C)C[C@H](NC(=O)[C@H](CCCN=C(N)N)NC(=O)[C@H](CCCCN)NC(=O)[C@H](Cc1c[nH]c2ccccc12)NC(=O)[C@H](Cc1c[nH]c2ccccc12)NC(=O)[C@H](CCCCN)NC(=O)[C@H](Cc1c[nH]c2ccccc12)NC(=O)[C@@H](N)Cc1c[nH]c2ccccc12)C(=O)N[C@@H](CCCN=C(N)N)C(=O)N[C@@H](CCCN=C(N)N)C(=O)N[C@@H](CC(C)C)C(=O)N[C@@H](Cc1ccccc1)C(=O)N[C@@H](CC(C)C)C(=O)N[C@@H](CC(C)C)C(=O)N[C@H](C(=O)O)C(C)C` [WWKWWKRLRRLFLLV], for which the minimal inhibitory concentration (MIC) in assay [18] and in [19] was 7.32 µM (≈ 16 µg/mL) throughout.

Consider `CC[C@H](C)[C@H](NC(=O)CNC(=O)[C@H](CO)NC(=O)[C@@H](N)CS)C(=O)N[C@H](C(=O)N[C@@H](CCCCN)C(=O)N[C@@H](CCC(N)=O)C(=O)N[C@H](C(=O)N[C@@H](CS)C(=O)N[C@H](C(=O)N[C@@H](CS)C(=O)N[C@@H](Cc1ccc(O)cc1)C(=O)N[C@@H](CCCN=C(N)N)C(=O)N[C@@H](CCCCN)C(=O)O)[C@@H](C)O)[C@@H](C)O)[C@@H](C)CC` [CSGIIKQTCTCYRK], for which the MIC (in the assay on Listeria grayi DSM 20601; in assay [20]) was 30 µM (≈ 48.1 µg/mL) throughout.

`CC[C@H](C)[C@H](NC(=O)[C@H](CCCCN)NC(=O)[C@H](CCCCN)NC(=O)[C@H](C)NC(=O)[C@H](CC(C)C)NC(=O)[C@H](C)NC(=O)[C@H](C)NC(=O)[C@H](CC(C)C)NC(=O)[C@@H]1CCCN1C(=O)[C@H](CCCCN)NC(=O)[C@H](CC(C)C)NC(=O)[C@H](CC(N)=O)NC(=O)[C@@H](NC(=O)[C@H](CCCCN)NC(=O)CNC(=O)[C@H](CC(C)C)NC(=O)[C@H](CC(C)C)NC(=O)[C@H](Cc1ccc(O)cc1)NC(=O)CNC(=O)[C@H](C)N)[C@@H](C)CC)C(=O)N[C@@H](CC(C)C)C(N)=O` [AGYLLGKINLKPLAALAKKIL]: the minimum inhibitory concentration (MIC) with Escherichia coli 780 was 14.5 µM (≈ 32 µg/mL); in assay [14] it was 58 µM (≈ 128 µg/mL); in assay [21], > 58 µM; in [22] it was 3.62 µM (≈ 8 µg/mL); in assay [15], 3.62 µM (≈ 8 µg/mL); in the assay on Escherichia coli 850, 7.24 µM (≈ 16 µg/mL). For the same molecule, the MIC in [23] is 29 µM (≈ 64 µg/mL); in [11], 58 µM (≈ 128 µg/mL); in assay [2], 7.24 µM (≈ 16 µg/mL); in assay [24], ≥ 58 µM; in assay [25] it was 29 µM (≈ 64 µg/mL); in the assay on Acinetobacter baumannii, 3.62 µM (≈ 8 µg/mL). Besides, the MIC in assay [4] worked out at 29 µM (≈ 64 µg/mL).
